Converted amounts (≈) assume the structure as drawn. Like-named read-outs stand apart in the source and are kept apart here.
Assays:
Experiment in all cases: in vitro antibacterial activity, agar dilution
Type in all cases: cell-based
[1] = test system: Bordetella bronchoseptica; settings: strain 16, read-out: Minimum Inhibitory Concentration
Source text: (§1) The bis-tetrazol-thiomethyl substituted cephalosporins of this invention are broad spectrum antibiotics which inhibit the growth of both gram positive and gram negative microorganisms which are pathogenic to man and animals. […] The following Table 2 lists the minimum inhibitory concentrations of representative compounds of the invention.
(§2) The data in TABLE 2 were obtained in the agar dilution test method using Mueller-Hinton agar containing two percent Supplement C (Difco). Serial two-fold dilutions were run with the highest concentration on test at 128 mcg/ml.

Citrobacter freundii = settings: strain CF17, read-out: Minimum Inhibitory Concentration
Source text: as §1, §2

Enterobacter aerogenes = settings: for MIC: Klebsiella aerogenes, read-out: Minimum Inhibitory Concentration
Source text: as §1, §2

Enterobacter cloacae = test system: Enterobacter cloacae
Source text: as §1, §2

Escherichia coli = test system: Escherichia coli
Source text: as §1, §2

Haemophilus influenzae = settings: for MIC: Haemophilus influenzae, read-out: Minimum Inhibitory Concentration
Source text: as §1, §2

Klebsiella sp. = test system: Klebsiella sp.
Source text: as §1, §2

Proteus inconstans = settings: Providencia alcalifaciens; strain PR33; read-out: Minimum Inhibitory Concentration
Source text: as §1, §2

Proteus morganii = settings: Morganella morganii, read-out: Minimum Inhibitory Concentration
Source text: as §1, §2

Proteus rettgeri = settings: Providencia rettgeri, read-out: Minimum Inhibitory Concentration
Source text: as §1, §2

Pseudomonas aeruginosa = test system: Pseudomonas aeruginosa
Source text: as §1, §2

Salmonella sp. = test system: Salmonella sp.
Source text: as §1, §2

Serratia marcescens = test system: Serratia marcescens
Source text: as §1, §2

Shigella sonnei = settings: strain N9, read-out: Minimum Inhibitory Concentration
Source text: as §1, §2

Staphylococcus aureus = test system: Staphylococcus aureus
Source text: as §1, §2

[2] = test system: Staphylococcus epidermidis
Source text: as §1, §2

Streptococcus Group A = settings: strain C203; read-out: Minimum Inhibitory Concentration
Source text: as §1, §2

Streptococcus Group D = settings: read-out: Minimum Inhibitory Concentration
Source text: as §1, §2

Streptococcus pneumoniae = settings: strain PARK, read-out: Minimum Inhibitory Concentration
Source text: as §1, §2

[3] = strain 265A, read-out: Minimum Inhibitory Concentration
[4] = strain EB5, read-out: Minimum Inhibitory Concentration
[5] = strain EC14, read-out: Minimum Inhibitory Concentration
[6] = strain N10, read-out: Minimum Inhibitory Concentration
[7] = strain TEM, read-out: Minimum Inhibitory Concentration
[8] = strain KAE, read-out: Minimum Inhibitory Concentration
[9] = strain X26, read-out: Minimum Inhibitory Concentration
[10] = strain Ps18, read-out: Minimum Inhibitory Concentration
[11] = strain X239, read-out: Minimum Inhibitory Concentration
[12] = strain X528, read-out: Minimum Inhibitory Concentration
[13] = strain 1335, read-out: Minimum Inhibitory Concentration
[14] = strain X514, read-out: Minimum Inhibitory Concentration
[15] = strain SE3, read-out: Minimum Inhibitory Concentration
[16] = strain X93, read-out: Minimum Inhibitory Concentration
[17] = read-out: Minimum Inhibitory Concentration
[18] = strain V41, read-out: Minimum Inhibitory Concentration
[19] = strain X1.1, read-out: Minimum Inhibitory Concentration
[20] = strain X400, read-out: Minimum Inhibitory Concentration
[21] = strain EPI1, read-out: Minimum Inhibitory Concentration
[22] = strain EPI2, read-out: Minimum Inhibitory Concentration

| Structure (SMILES) | MIC [1] | MIC (Citrobacter freundii) | MIC (Enterobacter aerogenes; strain EB17) | MIC (Enterobacter cloacae; [3]) | MIC (Enterobacter cloacae; [4]) | MIC (Escherichia coli; [5]) | MIC (Escherichia coli; [6]) | MIC (Klebsiella sp.; [8]) | MIC (Klebsiella sp.; [9]) | MIC (Proteus inconstans) | MIC (Proteus rettgeri; strain C24) | MIC (Proteus rettgeri; strain PR7) | MIC (Pseudomonas aeruginosa; [10]) | MIC (Pseudomonas aeruginosa; [11]) | MIC (Pseudomonas aeruginosa; [12]) | MIC (Salmonella sp.; [13]) | MIC (Salmonella sp.; [14]) | MIC (Serratia marcescens; [15]) | MIC (Shigella sonnei) | MIC (Staphylococcus aureus; [17]) | other results |
| --- | --- | --- | --- | --- | --- | --- | --- | --- | --- | --- | --- | --- | --- | --- | --- | --- | --- | --- | --- | --- | --- |
| CO[C@@]1(NC(=O)Cc2cccs2)C(=O)N2C(C(=O)O)=C(CSc3nnnn3Cc3nnn[nH]3)CS[C@@H]21 [A, 7-(2-thienylacetamido)-7-methoxy-3-[1-(1H-tetrazole-5-ylmethyl)-1H-tetrazole-5-ylthiomethyl]-3-cephem-4-carboxylic acid] | > 128 µg/mL | > 128 µg/mL | > 128 µg/mL | > 128 µg/mL | > 128 µg/mL | 4 µg/mL (≈ 7.26 µM) | 8 µg/mL (≈ 14.5 µM) | 4 µg/mL (≈ 7.26 µM) | 1 µg/mL (≈ 1.82 µM) | 4 µg/mL (≈ 7.26 µM) | 1 µg/mL (≈ 1.82 µM) | 4 µg/mL (≈ 7.26 µM) | > 128 µg/mL | > 128 µg/mL | > 128 µg/mL | 2 µg/mL (≈ 3.63 µM) | 1 µg/mL (≈ 1.82 µM) | 64 µg/mL (≈ 116 µM) | 8 µg/mL (≈ 14.5 µM) | 8 µg/mL (≈ 14.5 µM) | MIC (Enterobacter aerogenes; strain C32): > 128 µg/mL; MIC (Enterobacter aerogenes; strain X68): 4 µg/mL (≈ 7.26 µM); MIC (Escherichia coli; [7]): 4 µg/mL (≈ 7.26 µM); MIC (Haemophilus influenzae; strain 76, resistant strain): 0.25 µg/mL (≈ 0.454 µM); MIC (Haemophilus influenzae; strain C.L., sensitive strain): 0.25 µg/mL (≈ 0.454 µM); MIC (Proteus morganii; strain PR15): 64 µg/mL (≈ 116 µM); MIC (Serratia marcescens; [16]): 16 µg/mL (≈ 29.1 µM); MIC (Staphylococcus aureus; [18]): 2 µg/mL (≈ 3.63 µM); MIC (Staphylococcus aureus; [19]): 2 µg/mL (≈ 3.63 µM); MIC (Staphylococcus aureus; [20]): 16 µg/mL (≈ 29.1 µM); MIC [2, 21]: 16 µg/mL (≈ 29.1 µM); MIC [2, 22]: 8 µg/mL (≈ 14.5 µM); MIC (Streptococcus Group A): 0.5 µg/mL (≈ 0.908 µM); MIC (Streptococcus Group D; strain 9960): > 128 µg/mL; MIC (Streptococcus Group D; strain X66): 64 µg/mL (≈ 116 µM); MIC (Streptococcus pneumoniae): 4 µg/mL (≈ 7.26 µM) |
| CO/N=C(\C(=O)N[C@@H]1C(=O)N2C(C(=O)O)=C(CSc3nnnn3Cc3nnnn3C)CS[C@H]12)c1csc(N)n1 [F] | 128 µg/mL (≈ 216 µM) | 16 µg/mL (≈ 27 µM) | 0.25 µg/mL (≈ 0.421 µM) | 32 µg/mL (≈ 53.9 µM) | 1 µg/mL (≈ 1.68 µM) | 0.06 µg/mL (≈ 0.101 µM) | 0.25 µg/mL (≈ 0.421 µM) | 4 µg/mL (≈ 6.74 µM) | 0.06 µg/mL (≈ 0.101 µM) | 0.5 µg/mL (≈ 0.842 µM) | 0.25 µg/mL (≈ 0.421 µM) | 0.03 µg/mL (≈ 0.0505 µM) | 32 µg/mL (≈ 53.9 µM) | 32 µg/mL (≈ 53.9 µM) | 32 µg/mL (≈ 53.9 µM) | 0.5 µg/mL (≈ 0.842 µM) | 0.25 µg/mL (≈ 0.421 µM) | 0.5 µg/mL (≈ 0.842 µM) | 0.125 µg/mL (≈ 0.211 µM) | 8 µg/mL (≈ 13.5 µM) | MIC (Enterobacter aerogenes): 0.125 µg/mL (≈ 0.211 µM); Minimum Inhibitory Concentration (Enterobacter aerogenes; strain C32): .125 µg/mL; MIC (Escherichia coli; [17]): 0.125 µg/mL (≈ 0.211 µM); MIC (Haemophilus influenzae): 0.125 µg/mL (≈ 0.211 µM); Minimum Inhibitory Concentration (Haemophilus influenzae; strain 251, resistant strain): .125 µg/mL; MIC (Proteus morganii): 0.125 µg/mL (≈ 0.211 µM); MIC (Serratia marcescens; [17]): 0.125 µg/mL (≈ 0.211 µM); MIC (Staphylococcus aureus; [18]): 4 µg/mL (≈ 6.74 µM); MIC (Staphylococcus aureus; [19]): 2 µg/mL (≈ 3.37 µM); MIC (Staphylococcus aureus; [20]): > 128 µg/mL; MIC [2, 21]: 8 µg/mL (≈ 13.5 µM); MIC [2, 22]: 32 µg/mL (≈ 53.9 µM); MIC (Streptococcus Group A): 0.03 µg/mL (≈ 0.0505 µM); MIC (Streptococcus Group D; strain 9960): 16 µg/mL (≈ 27 µM); MIC (Streptococcus Group D; strain X66): > 128 µg/mL; MIC (Streptococcus pneumoniae): 0.015 µg/mL (≈ 0.0253 µM) |
| CCN1CCN(C(=O)N[C@@H](C(=O)N[C@@H]2C(=O)N3C(C(=O)O)=C(CSc4nnnn4Cc4nnn[nH]4)CS[C@H]23)c2ccc(O)cc2)C(=O)C1=O [D, 7-[α-(4-Ethylpiperazin-2,3-dione-1-ylcarbonylamino)-α-(4-hydroxyphenyl)acetamido]-3-[1-(1H-tetrazole-5-ylmethyl)-1H-tetrazole-5-ylthiomethyl]-3-cephem-4-carboxylic acid] | 32 µg/mL (≈ 44.8 µM) | 32 µg/mL (≈ 44.8 µM) | 0.5 µg/mL (≈ 0.701 µM) | 128 µg/mL (≈ 179 µM) | 2 µg/mL (≈ 2.8 µM) | 0.125 µg/mL (≈ 0.175 µM) | 2 µg/mL (≈ 2.8 µM) | > 128 µg/mL | 1 µg/mL (≈ 1.4 µM) | 2 µg/mL (≈ 2.8 µM) | 8 µg/mL (≈ 11.2 µM) | 4 µg/mL (≈ 5.6 µM) | 8 µg/mL (≈ 11.2 µM) | 4 µg/mL (≈ 5.6 µM) | 8 µg/mL (≈ 11.2 µM) | 4 µg/mL (≈ 5.6 µM) | 2 µg/mL (≈ 2.8 µM) | 4 µg/mL (≈ 5.6 µM) | 0.25 µg/mL (≈ 0.35 µM) | 32 µg/mL (≈ 44.8 µM) | MIC (Enterobacter aerogenes; strain C32): 2 µg/mL (≈ 2.8 µM); MIC (Enterobacter aerogenes; strain X68): 0.25 µg/mL (≈ 0.35 µM); MIC (Escherichia coli; [7]): 16 µg/mL (≈ 22.4 µM); MIC (Haemophilus influenzae; strain 251, resistant strain): 0.015 µg/mL (≈ 0.021 µM); MIC (Haemophilus influenzae; strain Brun, sensitive strain): 0.015 µg/mL (≈ 0.021 µM); MIC (Proteus morganii; strain PR15): 1 µg/mL (≈ 1.4 µM); MIC (Serratia marcescens; [16]): 1 µg/mL (≈ 1.4 µM); MIC (Staphylococcus aureus; [18]): 16 µg/mL (≈ 22.4 µM); MIC (Staphylococcus aureus; [19]): 4 µg/mL (≈ 5.6 µM); MIC (Staphylococcus aureus; [20]): > 128 µg/mL; MIC [2, 21]: 8 µg/mL (≈ 11.2 µM); MIC [2, 22]: 32 µg/mL (≈ 44.8 µM); MIC (Streptococcus Group A): 0.5 µg/mL (≈ 0.701 µM); MIC (Streptococcus Group D; strain 9960): 64 µg/mL (≈ 89.7 µM); MIC (Streptococcus Group D; strain X66): 128 µg/mL (≈ 179 µM); MIC (Streptococcus pneumoniae): 0.25 µg/mL (≈ 0.35 µM) |

From US4346076A, “Bis-tetrazoylmethyl substituted cephalosporin antibiotics” (Eli Lilly and Company, priority 1980, dated 1982)
